Measurements from PubChem BioAssay AID651790 (The Scripps Research Institute Molecular Screening Center, 2012).
Active and inactive are the calls of the source. No rule for the calls is given here.

Test system: cells with GAA30 frataxin promoter-luciferase, luminescence
Test: GAA30 FXN promoter reporter activators, dose response, counter-screen for GAA850 frataxin promoter activators, cell-based, luminescence, GAA30 repeat (AID 651790)

**Q.** With Clc1ccccc1-c1nnc(Nc2nc3cc4c(cc3s2)OCO4)o1 as the molecule, how does the EC50 read?
**A.** 53.1 µM (inactive)

**Q.** Which EC50 does the source give for COc1ccccc1NC(=O)c1cnc(SCC(=O)Nc2ccc3c(c2)OCO3)n(C)c1=O here?
**A.** > 59.6 µM (inactive)

**Q.** For COc1ccccc1NC(=O)c1cnc(SCC(=O)NCCc2ccccc2)n(C)c1=O, which EC50 is on record?
**A.** > 59.6 µM (inactive)

**Q.** Cn1c(SCC(=O)NCC2CCCO2)ncc(C(=O)Nc2ccc(F)cc2)c1=O (stereo not drawn) was tested. Which EC50 did it give?
**A.** > 59.6 µM (inactive)

**Q.** CSc1ccc2nc(Nc3nnc(-c4ccc5c(c4)OCCO5)o3)sc2c1 was tested. Which EC50 did it give?
**A.** > 59.6 µM (inactive)

**Q.** With COc1ccccc1CNC(=O)CSc1ncc(C(=O)Nc2ccccc2)c(=O)n1C as the molecule, how does the EC50 read?
**A.** > 59.6 µM (inactive)

**Q.** COc1ccc(-c2nnc(Nc3nc4ccc(OC)cc4s3)o2)c(OC)c1 was tested. Which EC50 did it give?
**A.** > 59.6 µM (inactive)

**Q.** How did the EC50 turn out when Fc1ccc(-c2nnc(Nc3nc4c(F)cccc4s3)o2)cc1 was run?
**A.** 0.634 µM

**Q.** How did the EC50 turn out when COc1ccccc1NC(=O)c1cnc(SCC(=O)NCc2ccc3c(c2)OCO3)n(C)c1=O was run?
**A.** > 59.6 µM (inactive)

**Q.** How did the EC50 turn out when COc1cccc2sc(Nc3nnc(-c4ccccc4)o3)nc12 was run?
**A.** > 59.6 µM (inactive)

**Q.** For COc1ccccc1NC(=O)c1cnc(SCC(=O)NCc2ccccc2)n(C)c1=O, which EC50 is on record?
**A.** > 59.6 µM (inactive)

**Q.** With COc1ccc(-c2nnc(Nc3nc4c(OC)cccc4s3)o2)c(OC)c1 as the molecule, how does the EC50 read?
**A.** > 59.6 µM (inactive)

**Q.** With COc1ccccc1-c1nnc(Nc2nc3c(OC)cccc3s2)o1 as the molecule, how does the EC50 read?
**A.** > 59.6 µM (inactive)

**Q.** With CSc1ccc2nc(Nc3nnc(-c4ccccc4Cl)o3)sc2c1 as the molecule, how does the EC50 read?
**A.** 27.6 µM (inactive)

**Q.** How did the EC50 turn out when COc1cccc2sc(Nc3nnc(-c4ccccc4Cl)o3)nc12 was run?
**A.** > 59.6 µM (inactive)

**Q.** With Cn1c(SCC(=O)NCC2CCCO2)ncc(C(=O)Nc2ccccc2)c1=O (stereo not drawn) as the molecule, how does the EC50 read?
**A.** > 59.6 µM (inactive)

**Q.** COc1ccc(-c2nnc(Nc3nc4c(OC)cccc4s3)o2)cc1 was tested. Which EC50 did it give?
**A.** > 59.6 µM (inactive)

**Q.** With COc1ccc(-c2nnc(Nc3nc4cc(OC)ccc4s3)o2)c(OC)c1 as the molecule, how does the EC50 read?
**A.** > 59.6 µM (inactive)

**Q.** For Clc1ccc(-c2nnc(Nc3nc4cc5c(cc4s3)OCO5)o2)cc1, which EC50 is on record?
**A.** > 59.6 µM (inactive)

**Q.** For COc1ccccc1NC(=O)c1cnc(SCC(=O)Nc2nc3ccccc3s2)n(C)c1=O, which EC50 is on record?
**A.** > 59.6 µM (inactive)

**Q.** How did the EC50 turn out when Fc1cccc2sc(Nc3nnc(-c4ccccc4Cl)o3)nc12 was run?
**A.** 4.95 µM

**Q.** With COc1ccccc1NC(=O)c1cnc(SCC(=O)NCC2CCCO2)n(C)c1=O (stereo not drawn) as the molecule, how does the EC50 read?
**A.** > 59.6 µM (inactive)

**Q.** How did the EC50 turn out when Cc1ccc(NC(=O)c2cnc(SCC(=O)Nc3cccc(C(F)(F)F)c3)n(C)c2=O)cc1C was run?
**A.** 28.7 µM (inactive)

**Q.** For Fc1ccc2nc(Nc3nnc(-c4ccccc4Cl)o3)sc2c1, which EC50 is on record?
**A.** > 59.6 µM (inactive)

**Q.** COc1ccc(-c2nnc(Nc3nc4ccc(SC)cc4s3)o2)c(OC)c1 was tested. Which EC50 did it give?
**A.** > 59.6 µM (inactive)

**Q.** For COc1ccc(-c2nnc(Nc3nc4ccc(F)cc4s3)o2)c(OC)c1, which EC50 is on record?
**A.** > 59.6 µM (inactive)

**Q.** For COc1ccccc1NC(=O)c1cnc(SCC(=O)Nc2cc(C)on2)n(C)c1=O, which EC50 is on record?
**A.** > 59.6 µM (inactive)

**Q.** For CCc1nnc(NC(=O)CSc2ncc(C(=O)Nc3ccc(C)c(C)c3)c(=O)n2C)s1, which EC50 is on record?
**A.** > 59.6 µM (inactive)
